Assays:
A498 = test: CellTiter-Blue cell viability assay, A498 cell line; assay type: cell-based; details: Homo sapiens, 72 hour treatment, concentration that inhibits cell growth by 50 percent of control
Experimental: (§1) Cell viability in the presence of varying concentrations of the above listed compounds at different time points was used to assess cytotoxicity and the effect of the compounds on cell proliferation.
(§2) Cell viability was measured by the CellTiter-Blue® cell viability assay Promega (Madison, Wis.). This procedure measures the conversion of the indicator dye (resazurin) to resorufin, an indicator of cell viability. Following treatment, growth media was removed and cells were incubated with 20 μl of CellTiter-Blue® Reagent and growth media for 1-4 hours at 37° C. Fluorescence values were measured at 535/590 nm using a Beckman-Coulter DTX-880 microplate reader.
(§3) Cells were grown to 70% confluency, trypsinized, counted, and seeded in 96 well flat-bottom plates at a final concentration of 2.5×10^3-5×10^3 cells/well (Day 0). Cells were allowed to incubate in growth media for 24 hours to allow for maximum adhesion. Treatment with the test agents or standard agents began on Day 1 and continued for 72 hours. At the 72 hour timepoint, treatment containing media was removed. Viable cell numbers were quantified by the CellTiter-Blue® cell viability assay as described above. Experiments were repeated at least twice with the same concentrations to determine growth inhibitory activity. Results from these studies were used to calculate an IC50 value (concentration of drug that inhibits cell growth by 50 percent of control) for each compound.
(§4) For single agent and combination studies, data from each experiment were collected and expressed as % Cell Growth using the following calculation: % Cell Growth=(ftest/fvehicle)×100 where ftest is the fluorescence of the tested sample, and fvehicle is the fluorescence of the vehicle in which the drug is dissolved. Dose response graphs and IC50 values were generated using Prism 4 software (GraphPad) using the following equation: Y=(Top−Bottom)/(1+10^((log IC50−X)[…])) where X is the logarithm of concentration and Y is the response. Y starts at the Bottom and goes to Top with a sigmoid shape.

AN3CA = test: CellTiter-Blue cell viability assay, AN3CA cell line; assay type: cell-based; details: Homo sapiens, AN3-CA, 72 hour treatment, concentration that inhibits cell growth by 50 percent of control
Experimental: as §1, §2, §3, §4

| SMILES | IC50 (A498) | IC50 (AN3CA) |
| --- | --- | --- |
| Cc1ccc(Br)c(-c2cc(C(F)(F)F)nn2-c2ccc(S(N)(=O)=O)cc2)c1 [Compound 6] | 6.9 µM | 1.5 µM |
| Cc1ccc(-c2ccn[nH]2)cc1-c1cc(C2CC2)nn1-c1ccc(S(N)(=O)=O)cc1 [Compound 73] | 7.9 µM | 3.3 µM |
| Cc1cc(-c2ccncc2)cc(-c2cc(C(F)(F)F)nn2-c2ccc(S(N)(=O)=O)cc2)c1 [Compound 22] | – | 1.2 µM |
| COc1ccc(C(C)C)cc1-c1cc(C(F)(F)F)nn1-c1ccc(S(N)(=O)=O)cc1 [Compound 7] | 12 µM | 5.8 µM |
| Cc1cc(-c2cc(C3CC3)nn2-c2ccc(C(=O)NO)cc2)ccc1Cl [Compound 76] | – | 9 µM |
| Cc1ccc(Br)cc1-c1cc(C(F)(F)F)nn1-c1ccc(S(N)(=O)=O)cc1 [Example 1] | 11 µM | 7.6 µM |
| CN(C)c1ccc(Br)cc1-c1cc(C(F)(F)F)nn1-c1ccc(S(N)(=O)=O)cc1 [Example 2] | 1.2 µM | 0.6 µM |
| Cc1ccc(-c2ccncc2)cc1-c1cc(C(F)(F)F)nn1-c1ccc(S(N)(=O)=O)cc1 [Example 11] | 8.9 µM | 0.01 µM |
| Cc1ccc(-c2cccnc2)cc1-c1cc(C(F)(F)F)nn1-c1ccc(S(N)(=O)=O)cc1 [Compound 46] | 10 µM | 9.1 µM |
| Cc1ccc(C(C)C)cc1-c1cc(C(F)(F)F)nn1-c1ccc(S(N)(=O)=O)cc1 [Compound 4] | 1.1 µM | 0.83 µM |
| NS(=O)(=O)c1ccc(-n2nc(C(F)(F)F)cc2-c2cc(-c3ccncc3)ccc2F)cc1 [Compound 20] | – | 3 µM |
| Cc1ccc(-c2ccn[nH]2)cc1-c1cc(C(F)(F)F)nn1-c1ccc(S(N)(=O)=O)cc1 [Example 12] | 14 µM | 0.04 µM |
| CN(C)c1ccc(-c2ccn[nH]2)cc1-c1cc(C(F)(F)F)nn1-c1ccc(S(N)(=O)=O)cc1 [Compound 36] | – | 9.1 µM |
| NS(=O)(=O)c1ccc(-n2nc(C(F)(F)F)cc2-c2cccc(-c3ccn[nH]3)c2)cc1 [Compound 34] | 12 µM | 2.1 µM |

— patent US10584119B2, “Pyrazole compounds and methods of use thereof” (TRANSLATIONAL DRUG DEVELOPMENT, LLC, priority 2013, dated 2020)
